From patent US20240417411A1, “COMPOUNDS AND METHODS FOR TREATMENT OF VIRAL INFECTIONS” (priority 2023, published 2024)

Legend:
in vitro [1] = format: cell-based; conditions: human
Description: Example C: CC50 MT4 Cytotoxicity of the compounds was determined in uninfected cells using the cell viability reagent in a similar fashion as described before for other cell types ([…] et al., Antimicrob Agents Chemother. 2008,52(2):655-65). […] Cells were cultured for 4-5 days at 37° C. Following the incubation, the cells were allowed to equilibrate to 25° C., and cell viability was determined by adding Cell-Titer Glo viability reagent. The mixture was incubated for 10 min, and the luminescence signal was quantified using an Envision plate reader. Untreated cell and cells treated at 2 μM puromycin (Sigma, St. Louis, MO) serve as 100% and 0% cell viability control, respectively. The percent of cell viability was calculated for each tested compound concentration relative to the 0% and 100% controls and the CC50 value was determined by non-linear regression as a compound concentration reducing the cell viability by 50%.

in vitro [2] = format: in vitro ADME; conditions: human, s9, pH 7.4
Description: Example D: GI S9 Stability […] The S9 metabolic reactions were initiated by the addition of the substrates to the S9 reaction mixture to a final concentration of 2 μM. […] Aliquots ([…]) of the diluted supernatant were analyzed on a Thermo Q-Exactive mass spectrometer as described below. Example F: Liquid Chromatography/Mass Spectroscopy Methods for S9 and Plasma Stability Quantification of test compounds, Reference Compound A (S9 stability assay nucleoside metabolite), and controls was performed by analyte/internal standard peak area ratio (PAR) values measured on a Thermo Q-Exactive mass spectrometer coupled to a Dionex UltiMate 3000 HPLC with a Leap Technologies HTC PAL autosampler. […] Mobile phase A consisted of 0.1% (v/v) formic acid in water. Mobile phase B consisted of 0.1% (v/v) formic acid in acetonitrile. Elution of analytes was achieved by a series of linear gradients of acetonitrile in water containing 0.10% (v/v) formic acid. The mass spectrometer was calibrated on a weekly basis and mass tolerance of 5 ppm was used.

SARS-CoV2-NLuc = assay: microbe, parasite or virus in culture; format: cell-based, SARS Coronavirus 2; conditions: Severe acute respiratory syndrome coronavirus 2, 48 h, read-out: SARS-CoV2 EC50 (nM)
RSV-Luc5 = assay: microbe, parasite or virus in culture; format: cell-based; conditions: human respiratory syncytial virus, NHBE, 72 h, read-out: RSV NHBE EC50 (nM)
[3] = test system: Caco-2 cells (clone C2BBe1); conditions: human, Caco-2

Row | SMILES | CC50 (in vitro [1]) [µM] | half-life at 2 μM (in vitro [2]) [min] | EC50 (SARS-CoV2-NLuc) [nM] | EC50 (RSV-Luc5) [nM] | Caco2 A to B [3] | Caco2 B to A [3]
1 | CC(C)OC(=O)OC[C@H]1O[C@@](C#N)(c2ccc3c(N)ncnn23)C2OC(=O)CCC(=O)OC21 (stereo partly drawn) [Compound C1, ((7R,9R)-9-(4-aminopyrrolo[2,1-f][1,2,4]triazin-7-yl)-9-cyano-2,5-dioxooctahydrofuro[3,4-b][1,4]dioxocin-7-yl)methyl isopropyl carbonate] | > 50 | 0.716 |  |  |  | 
2 | CC(C)OC(=O)OC[C@H]1O[C@@](C#N)(c2ccc3c(N)ncnn23)[C@@H]2OC(=O)CCCCCCC(=O)O[C@@H]21 [Compound C5, ((10aR,11R,13R,13aR)-13-(4-aminopyrrolo[2,1-f][1,2,4]triazin-7-yl)-13-cyano-2,9-dioxododecahydrofuro[3,4-b][1,4]dioxacyclododecin-11-yl)methyl isopropyl carbonate] | > 50 | 0.754 |  |  |  | 
3 | N#C[C@@]1(c2ccc3c(N)ncnn23)O[C@H](CO)[C@H]2OC(=O)CCCC(=O)O[C@H]21 [Compound C10, (7aR,8R,10R,10aR)-8-(4-aminopyrrolo[2,1-f][1,2,4]triazin-7-yl)-10-(hydroxymethyl)-2,6-dioxooctahydro-2H-furo[3,4-b][1,4]dioxonine-8-carbonitrile] | > 50 | 0.768 |  |  |  | 
4 | CC1(C)[C@H]2CC[C@@](C)(C2)[C@H]1OC(=O)OC[C@H]1O[C@@](C#N)(c2ccc3c(N)ncnn23)[C@@H]2OC(=O)CCCC(=O)O[C@@H]21 [Compound C28, ((7aR,8R,10R,10aR)-10-(4-aminopyrrolo[2,1-f][1,2,4]triazin-7-yl)-10-cyano-2,6-dioxooctahydro-2H-furo[3,4-b][1,4]dioxonin-8-yl)methyl ((1S,2R,4S)-1,3,3-trimethylbicyclo[2.2.1]heptan-2-yl) carbonate] | 18 | 0.595 | 21700 | 7110 |  | 
5 | CC1(C)CC(=O)O[C@H]2[C@@H](OC(=O)C1)[C@](C#N)(c1ccc3c(N)ncnn13)O[C@@H]2COC(=O)OC(C)(C)c1ccncc1 [Compound C34, ((7aR,8R,10R,10aR)-10-(4-aminopyrrolo[2,1-f][1,2,4]triazin-7-yl)-10-cyano-4,4-dimethyl-2,6-dioxooctahydro-2H-furo[3,4-b][1,4]dioxonin-8-yl)methyl (2-(pyridin-4-yl)propan-2-yl) carbonate] | > 50 | 44.7 | 8120 | > 50000 |  | 
6 | CC1(C)CC(=O)O[C@H]2[C@@H](OC(=O)C1)[C@](C#N)(c1ccc3c(N)ncnn13)O[C@@H]2COC(=O)OCCN1CCOCC1 [Compound C36, ((7aR,8R,10R,10aR)-10-(4-aminopyrrolo[2,1-f][1,2,4]triazin-7-yl)-10-cyano-4,4-dimethyl-2,6-dioxooctahydro-2H-furo[3,4-b][1,4]dioxonin-8-yl)methyl (2-morpholinoethyl) carbonate] | > 50 | 31.6 | > 50000 | > 50000 |  | 
7 | CCC(CC)COC(=O)OC[C@H]1O[C@@](C#N)(c2ccc3c(N)ncnn23)[C@@H]2OC(=O)CC(C)(C)CC(=O)O[C@@H]21 [Compound C38, ((7aR,8R,10R,10aR)-10-(4-aminopyrrolo[2,1-f][1,2,4]triazin-7-yl)-10-cyano-4,4-dimethyl-2,6-dioxooctahydro-2H-furo[3,4-b][1,4]dioxonin-8-yl)methyl (2-ethylbutyl) carbonate] | 30.9 | 7.17 | 38300 | > 50000 |  | 
8 | COC(C)(C)COC(=O)OC[C@H]1O[C@@](C#N)(c2ccc3c(N)ncnn23)[C@@H]2OC(=O)CC(C)(C)CC(=O)O[C@@H]21 [Compound C39, ((7aR,8R,10R,10aR)-10-(4-aminopyrrolo[2,1-f][1,2,4]triazin-7-yl)-10-cyano-4,4-dimethyl-2,6-dioxooctahydro-2H-furo[3,4-b][1,4]dioxonin-8-yl)methyl (2-methoxy-2-methylpropyl) carbonate] | > 50 | 9.97 | 8580 | > 50000 | 2 | 7.17
9 | CC1(C)CC(=O)O[C@H]2[C@@H](OC(=O)C1)[C@](C#N)(c1ccc3c(N)ncnn13)O[C@@H]2COC(=O)OCC1(C#N)CC1 [Compound C41, ((7aR,8R,10R,10aR)-10-(4-aminopyrrolo[2,1-f][1,2,4]triazin-7-yl)-10-cyano-4,4-dimethyl-2,6-dioxooctahydro-2H-furo[3,4-b][1,4]dioxonin-8-yl)methyl ((1-cyanocyclopropyl)methyl) carbonate] | > 50 | 4.17 | > 50000 | > 50000 | 0.54 | 6.77
10 | CC1(C)CC(=O)O[C@H]2[C@@H](OC(=O)C1)[C@](C#N)(c1ccc3c(N)ncnn13)O[C@@H]2COC(=O)OC(C)(C)C(F)F [Compound C42, ((7aR,8R,10R,10aR)-10-(4-aminopyrrolo[2,1-f][1,2,4]triazin-7-yl)-10-cyano-4,4-dimethyl-2,6-dioxooctahydro-2H-furo[3,4-b][1,4]dioxonin-8-yl)methyl (1,1-difluoro-2-methylpropan-2-yl) carbonate] | > 50 | 27.7 | > 50000 | > 50000 |  | 
11 | CC1(C)CC(=O)O[C@H]2[C@@H](OC(=O)C1)[C@](C#N)(c1ccc3c(N)ncnn13)O[C@@H]2COC(=O)O[C@H]1C(C)(C)[C@H]2CC[C@@]1(C)C2 [Compound C45, ((7aR,8R,10R,10aR)-10-(4-aminopyrrolo[2,1-f][1,2,4]triazin-7-yl)-10-cyano-4,4-dimethyl-2,6-dioxooctahydro-2H-furo[3,4-b][1,4]dioxonin-8-yl)methyl ((1S,2R,4S)-1,3,3-trimethylbicyclo[2.2.1]heptan-2-yl) carbonate] | 12.6 | 37.3 | 9170 | 4160 |  | 
12 | CC(C)(C)COC(=O)OC[C@H]1O[C@@](C#N)(c2ccc3c(N)ncnn23)[C@@H]2OC(=O)CC(C)(C)CC(=O)O[C@@H]21 [Compound C46, ((7aR,8R,10R,10aR)-10-(4-aminopyrrolo[2,1-f][1,2,4]triazin-7-yl)-10-cyano-4,4-dimethyl-2,6-dioxooctahydro-2H-furo[3,4-b][1,4]dioxonin-8-yl)methyl neopentyl carbonate] | > 50 | 4.71 | > 50000 | 11700 |  | 
13 | N#C[C@@]1(c2ccc3c(N)ncnn23)O[C@H](COC(=O)OC2CNC2)[C@H]2OC(=O)CCCC(=O)O[C@H]21 [Compound C50, ((7aR,8R,10R,10aR)-10-(4-aminopyrrolo[2,1-f][1,2,4]triazin-7-yl)-10-cyano-2,6-dioxooctahydro-2H-furo[3,4-b][1,4]dioxonin-8-yl)methyl azetidin-3-yl carbonate 2,2,2-trifluoroacetate] | > 50 | 1.91 | 3110 | 14500 |  | 
14 | CC1(C)CC(=O)O[C@H]2[C@@H](OC(=O)C1)[C@](C#N)(c1ccc3c(N)ncnn13)O[C@@H]2COC(=O)OC1CNC1 [Compound C51, ((7aR,8R,10R,10aR)-10-(4-aminopyrrolo[2,1-f][1,2,4]triazin-7-yl)-10-cyano-4,4-dimethyl-2,6-dioxooctahydro-2H-furo[3,4-b][1,4]dioxonin-8-yl)methyl azetidin-3-yl carbonate 2,2,2-trifluoroacetate] | > 50 | 26.6 | > 50000 | > 50000 |  | 
